Here are results for two compounds from patent US20200239530A1, “COMPOUNDS AND METHODS OF MODULATING PROTEIN DEGRADATION” (Vividion Therapeutics, Inc., priority 2017, published 2020).

Assay [1] concerns the target T1, CKMT1B Creatine kinase U-type, mitochondrial (Homo sapiens, UniProt P12532).
T1 construct: 200 μL of lysate containing 5 mg/ml proteome was treated with 2 μL of 100× compound stock; endogenous in cells
The assay can be described thus: Cysteine liganding, probe competition. Type of assay: binding. Conditions: for Liganded: CKMT1B Res# 316, uniprot P12532. An outline of the steps: (§1)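 Lysates from probe-sonicated cells in PBS (5 mg/ml proteome) were exposed to compound for 1 hr at 25° C, then labelled with desthiobiotin iodoacetamide probe (10 mM stock) for 1 hr at 25° C. Probe-tagged peptides were streptavidin-enriched after trypsin digestion.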

Assay [2] deals with T2, NAA15 N-alpha-acetyltransferase 15, NatA auxiliary subun (Homo sapiens, UniProt Q9BXJ9).
T2 construct: Cells were resuspended in cold PBS on ice and sonicated with a probe sonicator to achieve lysis; endogenous in cells
T2 sequence (Q9BXJ9 1-866): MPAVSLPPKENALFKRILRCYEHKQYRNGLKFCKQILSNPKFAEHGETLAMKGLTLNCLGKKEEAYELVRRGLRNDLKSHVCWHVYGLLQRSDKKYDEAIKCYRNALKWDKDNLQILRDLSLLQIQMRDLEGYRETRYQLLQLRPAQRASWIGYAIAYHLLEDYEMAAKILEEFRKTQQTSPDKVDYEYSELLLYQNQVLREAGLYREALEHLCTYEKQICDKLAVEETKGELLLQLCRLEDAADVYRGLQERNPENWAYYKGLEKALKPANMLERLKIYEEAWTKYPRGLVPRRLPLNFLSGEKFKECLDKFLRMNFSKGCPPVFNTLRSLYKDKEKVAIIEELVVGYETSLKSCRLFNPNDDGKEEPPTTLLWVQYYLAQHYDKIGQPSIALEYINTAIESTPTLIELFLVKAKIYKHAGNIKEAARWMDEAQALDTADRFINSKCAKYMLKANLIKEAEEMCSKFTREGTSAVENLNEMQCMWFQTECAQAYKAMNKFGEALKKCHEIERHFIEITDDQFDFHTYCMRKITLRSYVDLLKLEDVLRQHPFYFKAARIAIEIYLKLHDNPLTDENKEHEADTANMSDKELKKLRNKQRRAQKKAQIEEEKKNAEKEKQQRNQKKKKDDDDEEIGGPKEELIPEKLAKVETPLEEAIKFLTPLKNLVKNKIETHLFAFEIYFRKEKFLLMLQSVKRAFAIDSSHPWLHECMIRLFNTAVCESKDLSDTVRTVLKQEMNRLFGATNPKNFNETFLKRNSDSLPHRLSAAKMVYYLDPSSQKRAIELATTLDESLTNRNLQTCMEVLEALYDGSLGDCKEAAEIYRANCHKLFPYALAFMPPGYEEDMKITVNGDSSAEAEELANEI
The assay can be described thus: Cysteine liganding, probe competition. It counts as binding. An outline of the steps: as §1

As to `COc1ccc2c(c1)CCCN2C(=O)CCl` [KB02], the Liganded result is “YES” in assay [1] and “YES” in assay [2] (NAA15 Res# 817, uniprot Q9BXJ9).

For `O=C(CCl)Nc1cc(C(F)(F)F)cc(C(F)(F)F)c1` [KBO3], in assay [1], the Liganded entry is “YES”. Further, in assay [1] (uniprot P12532), the “100 Max” value was determined as 42.35, the 100 ave came to 29.59 and the 500 ave is recorded as 81.71. Besides, the “500 Max” value in assay [1] (uniprot P12532, in % (unit assumed)) worked out at 86.19. Further, in assay [2] (uniprot Q9BXJ9), the “100 Max” value is −21.23, the 100 ave is −31.6767, the “500 Max” value is 14.66 and the 500 ave is recorded as 14.66.
